Numbered stars: 1 amine (or outer) side, 2 acyl side, 3 side chain; on linkers, the order of the positions; unused ones are H or OH. Bridge positions count the residues as written; N and C are the ends. Square brackets hold non-standard residues; d marks the D form. Peptide text beside a SMILES is read from it. * marks the point of attachment. DOTA = O=C(O)CN1CCN(CC(=O)O)CCN(CC(=O)*)CCN(CC(=O)O)CC1; TATA = O=C(CC[*:1])N1CN(C(=O)CC[*:2])CN(C(=O)CC[*:3])C1; Hyp = O=C(O)[C@@H]1C[C@@H](O)CN1; hArg = N=C(N)NCCCC[C@H](N)C(=O)O; Cba = N[C@@H](CC1CCC1)C(=O)O; βAla = NCCC(=O)O; Sar = CNCC(=O)O
Legend:
[1] = molecular target: T1, Human EphA2 (Homo sapiens, UniProt P29317); test: SPR binding to human EphA2
T1 construct: Human EphA2 (residues 27-529) was cloned into pEXPR-IBA44; made in house; host or cells: HEK293 f/s cells
Procedure: Human EphA2 (residues 27-529) was cloned into pEXPR-IBA44 between the 5' NheI and 3' BsaI sites to make constructs expressing a BM40 signal sequence and C-terminal 6xHIS tag. For the expression and purification of the protein, HEK293 f/s cells at 1 x 10^6/mL in freestyle media (Thermo Fisher) were transfected with 1 µg DNA per million cells by PEI either 2:1 or 3:1 PEI:DNA ratio. On day 2 valproic acid was added to a 2.2 mM concentration. The supernatant was harvested 5 days post transfection and loaded on a 1 ml Ni-NTA agarose resin (Thermo Fisher) (wash buffer: 20 mM HEPES pH 7.6, 0.5 M NaCl, 5 mM imidazole, 0.01% Tween-20 buffer; elution buffer: 20 mM HEPES pH 7.6, 0.5 M NaCl, 300 mM imidazole, 0.01% Tween-20). The protein was concentrated to a volume of 2 mL, loaded onto an S-200 Superdex column (GE Healthcare) and eluted with 20 mM HEPES pH 7.6, 150 mM NaCl, 0.01% Tween-20 at a flow rate of 1 mL/min. Fractions were collected and those containing human EphA2 protein were concentrated for further use.
(§1) SPR experiments were performed on a Biacore 8K+ (Cytiva Life Sciences, USA) instrument, with methods matched for both human and mouse EphA2 protein. Protein was captured on to a Cytiva NTA sensor chip (Cytiva Life Sciences), via the expressed His-tag; this was followed by primary amine coupling chemistry to covalently immobilize the protein to the chip at 25°C. Initially the surface was injected with 0.5 mM NiCl2 for 2 minutes, followed by activation of the carboxymethyl dextran surface for 7 minutes using an injection of a 1:1 ratio of 0.4 M 1-ethyl-3-(3-dimethylaminopropyl) carbodiimide hydrochloride (EDC)/0.1 M N-hydroxy succinimide (NHS) at a flow rate of 10 µL/min.
Human EphA2 protein was captured to the Ni-NTA surface to a level of 200-300 RU and Mouse EphA2 to 500-800 RU; the residual activated groups were then blocked with a 7 minute injection of 1 M ethanolamine (pH 8.5):HBS-N (1:1). Finally, the Ni-NTA surface was chelated with a 1-minute injection of 350 mM EDTA.
Peptide was prepared in PBS/0.05% Tween 20 with a final DMSO concentration of 0.5%. The top peptide concentration was 100 or 500 nM and 5 further 3-fold dilutions. The peptide was titrated over the chip using single cycle kinetics at 25°C at a flow rate of 75 µL/min with 60 second association and 4000 second dissociation. All data were double referenced for blank injections and reference surface using standard processing procedures. Data was characterized with a 1:1 kinetic binding model to determine kinetic rate constants ka (M^-1s^-1) and kd (s^-1) and equilibrium dissociation constant KD (nM). All data processing was performed using Cytiva Insight Evaluation (Cytiva Life Sciences, USA).

[2] = in vivo; details: male, CD-1 (ICR), mouse, iv, 1 mg/kg
Procedure: (§2) In vivo pharmacokinetic studies were conducted in male CD-1 (ICR) mice, 7-9 weeks of age. […] Serial venous blood samples were taken at 5 min, 15 min, 30 min, 45 min, 1 h, 2 h and 4 h post injection. Samples were immediately transferred into low-binding microcentrifuge tubes containing 2 μL K2-EDTA (0.5 M) as anti-coagulant and kept on ice until processed by centrifugation at 4°C, 3200 g for 10 min. The resulting plasma was transferred into low-binding tubes and the protein precipitated by addition of methanol containing 0.5% Triton X-100 and internal standards (100 ng/mL each of labetalol, tolbutamide, verapamil, dexamethasone, glyburide and celecoxib). Samples were centrifuged at 4°C, 12000 g for 15 min and the supernatant removed, frozen over dry ice and stored at -70°C until LC-MS/MS analysis (Supplementary Materials - Methods). A calibration curve and quality control samples were prepared in the same matrix. Pharmacokinetic parameters were derived from noncompartmental analysis using the intravenous-noncompartmental model 201 (IV bolus input) in Phoenix WinNonlin version 8.3.5 (Certara, USA).

[3] = in vitro; type: in vitro ADME; details: plasma
Procedure: To determine binding to plasma proteins, BCY18469 was labeled with ^68Ga (apparent molar activity 1 GBq/µmol). Thereafter, 10 µL of the labeling mixture were added to 100 µL of mouse or human plasma (mouse: BioIVT, United Kingdom, human: Sigma Aldrich, Germany). The mixture was left for 15 min at room temperature. Afterwards, the plasma was loaded into an ultrafiltration device (Amicon Ultra 0.5ml - 30 kDa, Merck, Germany) and centrifuged at 14,000 rpm for 30 min at r.t. The filtrate and the membrane were measured in a gamma counter (Wizard2, Perkin Elmer, Germany). The amount of plasma-bound compound was calculated based on the counts in the […] relative to the total counts (filtrate + membrane).

[4] = molecular target: T2, Human EphA7 (Homo sapiens, UniProt Q15375); test: SPR homologue panel, EphA7; details: human EphA7, n=1; read-out: KD, no binding up to
T2 construct: purchased R&D Systems 6756-A7
Procedure: The commercial source details of the recombinant proteins used in SPR were as follows: Human proteins: EphA1 (15789-H02H, Sino Biological), EphA3 (644-A3, R&D Systems), EphA6 (5606-A6, R&D Systems), EphA7 (6756-A7, R&D Systems). Mouse proteins: Mouse EphA2 was purchased from R&D Systems (Product number 639-A2). Mouse EphA2-Fc was resuspended as per manufacturer's recommendations and material was passed through a SuperdexS200 column to remove aggregates.
as §1
Peptide was prepared in PBS/0.05% Tween 20 with a final DMSO concentration of 0.5%. The top peptide concentration was 100 or 500 nM and 5 further 3-fold dilutions. […]

[5] = male, CD-1 (ICR), mouse, in vivo, iv, 1 mg/kg
Procedure: as §2

T1 sequence (P29317 27-529): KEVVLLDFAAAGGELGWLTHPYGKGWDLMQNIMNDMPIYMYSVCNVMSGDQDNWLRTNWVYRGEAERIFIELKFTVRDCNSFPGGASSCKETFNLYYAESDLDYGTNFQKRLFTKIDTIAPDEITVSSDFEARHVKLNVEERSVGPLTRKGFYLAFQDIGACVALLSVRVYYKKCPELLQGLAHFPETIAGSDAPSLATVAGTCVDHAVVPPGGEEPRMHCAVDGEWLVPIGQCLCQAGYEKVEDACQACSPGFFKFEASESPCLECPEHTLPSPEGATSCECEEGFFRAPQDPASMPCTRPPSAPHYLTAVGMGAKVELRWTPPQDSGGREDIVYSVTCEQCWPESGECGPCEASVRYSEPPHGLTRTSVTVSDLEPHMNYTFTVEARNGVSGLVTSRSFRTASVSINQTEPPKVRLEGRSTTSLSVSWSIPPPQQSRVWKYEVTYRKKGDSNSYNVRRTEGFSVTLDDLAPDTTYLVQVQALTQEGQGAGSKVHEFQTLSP
T2 sequence (Q15375 28-998): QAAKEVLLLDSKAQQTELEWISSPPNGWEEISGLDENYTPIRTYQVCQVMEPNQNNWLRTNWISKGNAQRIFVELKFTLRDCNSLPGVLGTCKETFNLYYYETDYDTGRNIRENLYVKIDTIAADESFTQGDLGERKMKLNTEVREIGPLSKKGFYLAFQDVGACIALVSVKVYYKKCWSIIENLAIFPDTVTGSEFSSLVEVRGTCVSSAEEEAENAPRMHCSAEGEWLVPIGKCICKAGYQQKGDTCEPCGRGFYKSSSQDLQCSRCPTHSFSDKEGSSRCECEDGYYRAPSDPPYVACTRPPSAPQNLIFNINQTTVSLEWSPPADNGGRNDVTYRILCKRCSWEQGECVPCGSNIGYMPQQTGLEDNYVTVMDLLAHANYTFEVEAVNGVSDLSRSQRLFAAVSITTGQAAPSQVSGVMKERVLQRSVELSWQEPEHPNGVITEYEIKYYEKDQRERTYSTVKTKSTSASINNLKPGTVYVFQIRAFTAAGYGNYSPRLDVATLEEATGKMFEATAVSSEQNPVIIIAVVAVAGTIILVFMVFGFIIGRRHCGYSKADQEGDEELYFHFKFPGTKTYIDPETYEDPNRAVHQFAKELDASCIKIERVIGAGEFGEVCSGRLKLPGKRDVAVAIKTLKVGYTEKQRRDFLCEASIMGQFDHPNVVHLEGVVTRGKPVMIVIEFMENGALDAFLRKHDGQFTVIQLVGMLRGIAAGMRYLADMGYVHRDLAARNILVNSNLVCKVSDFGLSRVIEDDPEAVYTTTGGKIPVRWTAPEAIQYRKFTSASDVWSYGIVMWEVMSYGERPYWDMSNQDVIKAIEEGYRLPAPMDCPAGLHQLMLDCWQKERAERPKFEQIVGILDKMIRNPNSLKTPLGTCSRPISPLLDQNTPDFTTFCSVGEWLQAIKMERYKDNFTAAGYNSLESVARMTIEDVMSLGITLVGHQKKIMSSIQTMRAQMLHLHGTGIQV

Kd ([1]; human EphA2, 25°C, read-out: KD (SPR)): 1.93 ± 0.35 nM
kon ([1]; human EphA2, n=2, read-out: ka): 1.82e+06 M⁻¹ s⁻¹
AUC(0-inf) [2]: 701 ng·h/mL
AUC(0-t) [2]: 700 ng·h/mL
Cmax [2]: 3320 ng/mL
Vd [2]: 0.39 L/kg
half-life [2]: 14.4 min
clearance ([2]; CLp): 23.9 mL/min/kg
fraction unbound at 15 min ([3]; human, Plasma protein binding (% bound peptide)): 0.567
fraction unbound at 15 min ([3]; mouse): 0.489
Kd [4]: > 5000 nM
CLp [5]: 24 mL/min/kg
Compound: CC(C)C[C@@H]1NC(=O)[C@@H]2CSCCC(=O)N3CN(CN(C3)C(=O)CCSC[C@H](NC(=O)[C@H](CC(=O)O)NC(=O)[C@H](CCCCNC(=N)N)NC(=O)[C@H](C)NC(=O)CN(C)C(=O)CN(C)C(=O)CN(C)C(=O)CN(C)C(=O)CN(C)C(=O)CN(C)C(=O)CN(C)C(=O)CN(C)C(=O)CN(C)C(=O)CN(C)C(=O)CCNC(=O)CN3CCN(CC(=O)O)CCN(CC(=O)O)CCN(CC(=O)O)CC3)C(=O)N3C[C@H](O)C[C@H]3C(=O)N[C@@H](CC3CCC3)C(=O)N[C@@H](C(C)C)C(=O)N[C@@H](CC(N)=O)C(=O)N3CCC[C@H]3C(=O)N[C@@H](CC(C)C)C(=O)N2)C(=O)CCSC[C@@H](C(N)=O)NC(=O)[C@H](CCCCNC(=N)N)NC(=O)[C@H](Cc2c[nH]c3ccccc23)NC(=O)[C@@H](CC(=O)O)NC(=O)[C@@H]2CCCN2C(=O)[C@H](Cc2c[nH]cn2)NC1=O [BCY18469, [-DOTA]-[B-Ala]-[Sar10]-Ala-[HArg]-Asp-Cys-[HyP]-[Cba]-Val-Asn-Pro-Leu-Cys-Leu-His-Pro-[dAsp]-Trp-[HArg]-Cys-CONH2] ({DOTA-βAla}-[Sar][Sar][Sar][Sar][Sar][Sar][Sar][Sar][Sar][Sar]A[hArg]DC[Hyp][Cba]VNPLCLHP[dD]W[hArg]C-NH2; linker 14-21-28 via TATA)
